Tests used:
Assay type in all cases: functional
K562 = test: Cytotoxicity against human K562 cells assessed as growth inhibition at 10 uM after 48 hrs by SRB assay; conditions: K562, 48 h, read-out: GI
[1] = Cytotoxicity against human RPMI8226 cells assessed as growth inhibition at 10 uM after 48 hrs by SRB assay; conditions: RPMI-8226, 48 h, read-out: GI
[2] = Cytotoxicity against human UACC62 cells assessed as growth inhibition at 10 uM after 48 hrs by SRB assay; conditions: UACC-62, 48 h, read-out: GI
A549 = test: Cytotoxicity against human A549 cells assessed as growth inhibition at 10 uM after 48 hrs by SRB assay; conditions: A549, 48 h, read-out: GI
[3] = Cytotoxicity against human SF295 cells assessed as growth inhibition at 10 uM after 48 hrs by SRB assay; conditions: SF-295, 48 h, read-out: GI
MDA-MB-231 = test: Cytotoxicity against human MDA-MB-231 cells assessed as growth inhibition at 10 uM after 48 hrs by SRB assay; conditions: MDA-MB-231, 48 h, read-out: GI
SN12C = test: Cytotoxicity against human SN12C cells assessed as growth inhibition at 10 uM after 48 hrs by SRB assay; conditions: read-out: GI
[4] = Cytotoxicity against human OVCAR8 cells assessed as growth inhibition at 10 uM after 48 hrs by SRB assay; conditions: OVCAR-8, 48 h, read-out: GI
[5] = Cytotoxicity against human RXF393 cells assessed as growth inhibition at 10 uM after 48 hrs by SRB assay; conditions: RXF 393, 48 h, read-out: GI
[6] = Cytotoxicity against human SF268 cells assessed as growth inhibition at 10 uM after 48 hrs by SRB assay; conditions: SF-268, 48 h, read-out: GI
MCF7 = test: Cytotoxicity against human MCF7 cells assessed as growth inhibition at 10 uM after 48 hrs by SRB assay; conditions: MCF7, 48 h, read-out: GI
NCI-H226 = test: Cytotoxicity against human NCI-H226 cells assessed as growth inhibition at 10 uM after 48 hrs by SRB assay; conditions: NCI-H226, 48 h, read-out: GI
[7] = Cytotoxicity against human HCT15 cells assessed as growth inhibition at 10 uM after 48 hrs by SRB assay; conditions: HCT-15, 48 h, read-out: GI
T47D = test: Cytotoxicity against human T47D cells assessed as growth inhibition at 10 uM after 48 hrs by SRB assay; conditions: read-out: GI
[8] = Cytotoxicity against human Caki1 cells assessed as growth inhibition at 10 uM after 48 hrs by SRB assay; conditions: CAKI-1, 48 h, read-out: GI
[9] = Cytotoxicity against human NCI-ADR-RES cells assessed as growth inhibition at 10 uM after 48 hrs by SRB assay; conditions: read-out: GI
M14 = test: Cytotoxicity against human M14 cells assessed as growth inhibition at 10 uM after 48 hrs by SRB assay; conditions: M14, 48 h, read-out: GI
KM12 = test: Cytotoxicity against human KM12 cells assessed as growth inhibition at 10 uM after 48 hrs by SRB assay; conditions: KM12, 48 h, read-out: GI
[10] = Cytotoxicity against human OVCAR3 cells assessed as growth inhibition at 10 uM after 48 hrs by SRB assay; conditions: OVCAR-3, 48 h, read-out: GI
[11] = Cytotoxicity against human NCI-H322 cells assessed as growth inhibition at 10 uM after 48 hrs by SRB assay; conditions: NCI-H322, 48 h, read-out: GI
Malme-3M = test: Cytotoxicity against human MALME-3M cells assessed as growth inhibition at 10 uM after 48 hrs by SRB assay; conditions: read-out: GI
[12] = Cytotoxicity against human PC3 cells assessed as growth inhibition at 10 uM after 48 hrs by SRB assay; conditions: PC-3, 48 h, read-out: GI
[13] = Cytotoxicity against human LOXIMVI cells assessed as growth inhibition at 10 uM after 48 hrs by SRB assay; conditions: LOX IMVI, read-out: GI
[14] = Cytotoxicity against human OVCAR5 cells assessed as growth inhibition at 10 uM after 48 hrs by SRB assay; conditions: OVCAR-5, 48 h, read-out: GI
NCI-H23 = test: Cytotoxicity against human NCI-H23 cells assessed as growth inhibition at 10 uM after 48 hrs by SRB assay; conditions: NCI-H23, 48 h, read-out: GI
[15] = Cytotoxicity against human MOLT4 cells assessed as growth inhibition at 10 uM after 48 hrs by SRB assay; conditions: MOLT-4, 48 h, read-out: GI
NCI-H522 = test: Cytotoxicity against human NCI-H522 cells assessed as growth inhibition at 10 uM after 48 hrs by SRB assay; conditions: NCI-H522, 48 h, read-out: GI
[16] = Cytotoxicity against human Hs 578T cells assessed as growth inhibition at 10 uM after 48 hrs by SRB assay; conditions: read-out: GI
[17] = Cytotoxicity against human SKOV3 cells assessed as growth inhibition at 10 uM after 48 hrs by SRB assay; conditions: SK-OV-3, 48 h, read-out: GI
ACHN = test: Cytotoxicity against human ACHN cells assessed as growth inhibition at 10 uM after 48 hrs by SRB assay; conditions: read-out: GI
MDA-MB-435 = test: Cytotoxicity against human MDA-MB-435 cells assessed as growth inhibition at 10 uM after 48 hrs by SRB assay; conditions: MDA-MB-435, 48 h, read-out: GI
EKVX = test: Cytotoxicity against human EKVX cells assessed as growth inhibition at 10 uM after 48 hrs by SRB assay; conditions: read-out: GI
[18] = Cytotoxicity against human OVCAR4 cells assessed as growth inhibition at 10 uM after 48 hrs by SRB assay; conditions: OVCAR-4, 48 h, read-out: GI
SK-MEL-5 = test: Cytotoxicity against human SK-MEL-5 cells assessed as growth inhibition at 10 uM after 48 hrs by SRB assay; conditions: SK-MEL-5, 48 h, read-out: GI
[19] = Cytotoxicity against human UO31 cells assessed as growth inhibition at 10 uM after 48 hrs by SRB assay; conditions: UO-31, 48 h, read-out: GI
[20] = Cytotoxicity against human HOP92 cells assessed as growth inhibition at 10 uM after 48 hrs by SRB assay; conditions: HOP-92, 48 h, read-out: GI
[21] = Cytotoxicity against human IGROV1 cells assessed as growth inhibition at 10 uM after 48 hrs by SRB assay; conditions: IGROV-1, 48 h, read-out: GI
[22] = Cytotoxicity against human HCT116 cells assessed as growth inhibition at 10 uM after 48 hrs by SRB assay; conditions: HCT-116, 48 h, read-out: GI
U-251 = test: Cytotoxicity against human U251 cells assessed as growth inhibition at 10 uM after 48 hrs by SRB assay; conditions: U-251, 48 h, read-out: GI
[23] = Cytotoxicity against human SNB75 cells assessed as growth inhibition at 10 uM after 48 hrs by SRB assay; conditions: SNB-75, 48 h, read-out: GI
786-0 = test: Cytotoxicity against human 786-0 cells assessed as growth inhibition at 10 uM after 48 hrs by SRB assay; conditions: 786-0, 48 h, read-out: GI
A498 = test: Cytotoxicity against human A498 cells assessed as growth inhibition at 10 uM after 48 hrs by SRB assay; conditions: A498, 48 h, read-out: GI
[24] = Cytotoxicity against human SNB19 cells assessed as growth inhibition at 10 uM after 48 hrs by SRB assay; conditions: SNB-19, 48 h, read-out: GI
[25] = Cytotoxicity against human HL-60(TB) cells assessed as growth inhibition at 10 uM after 48 hrs by SRB assay; conditions: HL-60, 48 h, read-out: GI
CCRF-CEM = test: Cytotoxicity against human CCRF-CEM cells assessed as growth inhibition at 10 uM after 48 hrs by SRB assay; conditions: read-out: GI
SK-MEL-2 = test: Cytotoxicity against human SK-MEL-2 cells assessed as growth inhibition at 10 uM after 48 hrs by SRB assay; conditions: SK-MEL-2, 48 h, read-out: GI
SK-MEL-28 = test: Cytotoxicity against human SK-MEL-28 cells assessed as growth inhibition at 10 uM after 48 hrs by SRB assay; conditions: SK-MEL-28, 48 h, read-out: GI
MDA-MB-468 = test: Cytotoxicity against human MDA-MB-468 cells assessed as growth inhibition at 10 uM after 48 hrs by SRB assay; conditions: MDA-MB-468, 48 h, read-out: GI
[26] = Cytotoxicity against human OVCAR1 cells assessed as growth inhibition at 10 uM after 48 hrs by SRB assay; conditions: OVCAR1, 48 h, read-out: GI
[27] = Cytotoxicity against human SW620 cells assessed as growth inhibition at 10 uM after 48 hrs by SRB assay; conditions: SW-620, 48 h, read-out: GI
SR = test: Cytotoxicity against human SR cells assessed as growth inhibition at 10 uM after 48 hrs by SRB assay; conditions: read-out: GI
[28] = Cytotoxicity against human BT549 cells assessed as growth inhibition at 10 uM after 48 hrs by SRB assay; conditions: BT-549, 48 h, read-out: GI
[29] = Cytotoxicity against human UACC257 cells assessed as growth inhibition at 10 uM after 48 hrs by SRB assay; conditions: UACC-257, 48 h, read-out: GI

COc1cc(NC(=O)CSc2nc3ccc(Cl)cc3c(=O)n2-c2ccc(F)cc2)cc(OC)c1OC
inhibition of growth at 10 µM (K562): 20% | inhibition of growth at 10 µM [1]: 61% | inhibition of growth at 10 µM [2]: 29% | inhibition of growth at 10 µM (A549): 17% | inhibition of growth at 10 µM [3]: 20% | inhibition of growth at 10 µM (MDA-MB-231): 34% | inhibition of growth at 10 µM (SN12C): 22% | inhibition of growth at 10 µM [4]: 12% | inhibition of growth at 10 µM [5]: 20% | inhibition of growth at 10 µM [6]: 21% | inhibition of growth at 10 µM (MCF7): 13% | inhibition of growth at 10 µM (NCI-H226): 17% | inhibition of growth at 10 µM [7]: 16% | inhibition of growth at 10 µM (T47D): 28% | inhibition of growth at 10 µM [8]: 29% | inhibition of growth at 10 µM [9]: 19% | inhibition of growth at 10 µM (M14): 16% | inhibition of growth at 10 µM (KM12): 15% | inhibition of growth at 10 µM [10]: 20% | inhibition of growth at 10 µM [11]: 14% | inhibition of growth at 10 µM (Malme-3M): 15% | inhibition of growth at 10 µM [12]: 27% | inhibition of growth at 10 µM [13]: 27% | inhibition of growth at 10 µM [14]: 12% | inhibition of growth at 10 µM (NCI-H23): 15% | inhibition of growth at 10 µM [15]: 39% | inhibition of growth at 10 µM (NCI-H522): 21% | inhibition of growth at 10 µM [16]: 26% | inhibition of growth at 10 µM [17]: 13% | inhibition of growth at 10 µM (ACHN): 15% | inhibition of growth at 10 µM (MDA-MB-435): 10% | inhibition of growth at 10 µM (EKVX): 33% | inhibition of growth at 10 µM [18]: 23% | inhibition of growth at 10 µM (SK-MEL-5): 27% | inhibition of growth at 10 µM [19]: 60% | inhibition of growth at 10 µM [20]: 64% | inhibition of growth at 10 µM [21]: 14% | inhibition of growth at 10 µM [22]: 21% | inhibition of growth at 10 µM (U-251): 18% | inhibition of growth at 10 µM [23]: 28% | inhibition of growth at 10 µM (786-0): 25% | inhibition of growth at 10 µM (A498): 66% | inhibition of growth at 10 µM [24]: 18%

COc1cc(NC(=O)CSc2nc3ccc(C)cc3c(=O)n2-c2ccccc2)cc(OC)c1OC
inhibition of growth at 10 µM (K562): 13% | inhibition of growth at 10 µM [1]: 24% | inhibition of growth at 10 µM [2]: 23% | inhibition of growth at 10 µM (A549): 17% | inhibition of growth at 10 µM (MDA-MB-231): 23% | inhibition of growth at 10 µM [4]: 13% | inhibition of growth at 10 µM [25]: 11% | inhibition of growth at 10 µM (CCRF-CEM): 17% | inhibition of growth at 10 µM [5]: 14% | inhibition of growth at 10 µM [6]: 14% | inhibition of growth at 10 µM (NCI-H226): 18% | inhibition of growth at 10 µM [7]: 19% | inhibition of growth at 10 µM (T47D): 19% | inhibition of growth at 10 µM [8]: 12% | inhibition of growth at 10 µM [9]: 25% | inhibition of growth at 10 µM (M14): 21% | inhibition of growth at 10 µM (SK-MEL-2): 14% | inhibition of growth at 10 µM (KM12): 25% | inhibition of growth at 10 µM [10]: 16% | inhibition of growth at 10 µM (Malme-3M): 10% | inhibition of growth at 10 µM [12]: 18% | inhibition of growth at 10 µM [13]: 25% | inhibition of growth at 10 µM (NCI-H23): 16% | inhibition of growth at 10 µM [15]: 41% | inhibition of growth at 10 µM (NCI-H522): 32% | inhibition of growth at 10 µM (SK-MEL-28): 17% | inhibition of growth at 10 µM (MDA-MB-468): 31% | inhibition of growth at 10 µM [26]: 11% | inhibition of growth at 10 µM (ACHN): 10% | inhibition of growth at 10 µM (MDA-MB-435): 53% | inhibition of growth at 10 µM [18]: 32% | inhibition of growth at 10 µM (SK-MEL-5): 23% | inhibition of growth at 10 µM [19]: 49% | inhibition of growth at 10 µM [27]: 13% | inhibition of growth at 10 µM [20]: 51% | inhibition of growth at 10 µM (SR): 58% | inhibition of growth at 10 µM [28]: 21% | inhibition of growth at 10 µM [29]: 18% | inhibition of growth at 10 µM [22]: 13% | inhibition of growth at 10 µM [23]: 43% | inhibition of growth at 10 µM (786-0): 11% | inhibition of growth at 10 µM (A498): 38% | inhibition of growth at 10 µM [24]: 13%

— ChEMBL document CHEMBL3784933, “Synthesis and antitumor evaluation of trimethoxyanilides based on 4(3H)-quinazolinone scaffolds” (2016)
